For data set [1], the species on record is Rattus norvegicus. Briefly: Inhibition of rat serum BuChE at 40 uM using butyrylthiocholine as substrate measured after 20 mins by Ellman's method relative to control.
The species named for data set [2] is Rattus norvegicus. Briefly: Selectivity index, ratio of IC50 for rat serum BuChE to IC50 for rat cortex AChE.
Data set [3] in a line: Antioxidant activity assessed as trolox equivalent of AAPH radical scavenging activity preincubated for 10 mins followed by AAPH challenge measured every min for 180 mins by ORAC-FL assay. It is filed as functional.
Data set [4] in a line: Inhibition of cupric ion-induced aggregation of amyloid beta (1 to 42) (unknown origin) at compound:amyloid beta (1 to 42):Cu2+ ratio of 2:1:1 measured after 24 hrs by TEM analysis.
The test system of data set [5] is SH-SY5Y. Briefly: Neuroprotective activity in human SH-SY5Y cells assessed as protection against Cu2+ induced amyloid-beta (1 to 42) neurotoxicity by measuring increase in cell viability at compound:amyloid-beta (1 to 42):Cu2+ ratio of 2:1:1 after 24 hrs by MTT assay relative to control. It is filed as functional, cell-based.
Data set [6] is described as follows: Antioxidant activity assessed as inhibition of Cu2+-induced CCA […] to 7-hydroxy-CCA by measuring decrease in hydroxyl radical production at 10 uM in presence of ascorbate by fluorescence assay.
Data set [7] is described as follows: Inhibition of cupric ion-induced aggregation of amyloid beta (1 to 42) (unknown origin) at 50 uM measured after 24 hrs by dot blot assay.
Data set [8] has as its target T1, Acetylcholinesterase (Rattus norvegicus, UniProt P37136).
T1 sequence (P37136 whole entry): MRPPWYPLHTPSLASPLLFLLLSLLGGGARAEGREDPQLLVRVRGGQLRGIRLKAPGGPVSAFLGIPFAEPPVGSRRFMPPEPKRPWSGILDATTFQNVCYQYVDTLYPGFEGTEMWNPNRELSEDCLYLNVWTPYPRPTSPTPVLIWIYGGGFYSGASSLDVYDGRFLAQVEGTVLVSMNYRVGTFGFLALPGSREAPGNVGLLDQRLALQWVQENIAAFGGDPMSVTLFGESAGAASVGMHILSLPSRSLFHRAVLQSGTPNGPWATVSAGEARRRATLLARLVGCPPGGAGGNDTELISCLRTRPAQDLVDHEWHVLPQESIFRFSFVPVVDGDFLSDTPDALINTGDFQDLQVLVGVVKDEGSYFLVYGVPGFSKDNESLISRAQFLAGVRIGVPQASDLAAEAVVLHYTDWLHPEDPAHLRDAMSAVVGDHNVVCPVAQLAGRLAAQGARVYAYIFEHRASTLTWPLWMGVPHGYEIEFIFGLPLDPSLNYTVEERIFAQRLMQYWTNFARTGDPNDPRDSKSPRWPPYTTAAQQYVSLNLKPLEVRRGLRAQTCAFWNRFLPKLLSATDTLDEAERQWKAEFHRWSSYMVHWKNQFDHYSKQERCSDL
The experiment in a line: Inhibition of rat cortex AChE using acetylthiocholine iodide as substrate measured after 20 mins by Ellman's method. A general note: Ellman's reagent forms a yellow product with free thiols.

Data set [9] in a line: Inhibition of rat serum BuChE using butyrylthiocholine as substrate measured after 20 mins by Ellman's method.
The nature of data set [10]: Metal chelating activity assessed as Cu2+-compound complex formation at 40 uM measured after 1 hr by UV-vis spectroscopic analysis. In kind it is physicochemical.
A short description of data set [11]: Metal chelating activity assessed as Fe2+-compound complex formation at 40 uM measured after 1 hr by UV-vis spectroscopic analysis. It is filed as physicochemical.
Data set [12] is described as follows: Metal chelating activity assessed as Fe3+-compound complex formation at 40 uM measured after 1 hr by UV-vis spectroscopic analysis. In kind it is physicochemical.
The nature of data set [13]: Metal chelating activity assessed as Zn2+-compound complex formation at 40 uM measured after 1 hr by UV-vis spectroscopic analysis. In kind it is physicochemical.
A short description of data set [14]: Cytotoxicity against human SH-SY5Y cells assessed as reduction in cell viability at 10 and 30 uM measured after 24 hrs by MTT assay. It is filed as toxicity, cell-based. On the technique in general: Tetrazolium assays rely on reduction of a dye to a coloured formazan, in cell work by metabolically active cells.
The nature of data set [15]: Cytotoxicity against human SH-SY5Y cells assessed as reduction in cell viability at 100 uM measured after 24 hrs by MTT assay. It is filed as toxicity, cell-based.
Data set [16] is described as follows: Cytotoxicity against human SH-SY5Y cells assessed as reduction in cell viability after 24 hrs in presence of Cu2+ ion by MTT assay. It is filed as toxicity, cell-based.
A short description of data set [17]: Permeability of the compound in PBS/EtOH (7:3) buffer measured after 10 hrs by PAMPA assay. In kind it is ADME. The settings on record: read-out: Peff. In general terms: The PAMPA barrier holds no transporters, so it reflects passive diffusion.
Data set [18] is described as follows: Solubility of the compound in water measured after 24 hrs by HPLC analysis. In kind it is physicochemical.
Data set [19] can be described thus: Plasma concentration in ICR mouse at 200 mg/kg administered through oral gavage measured after 1 hr by LC-MS/MS analysis. In kind it is ADME, organism-based.
Data set [20] is described as follows: Drug uptake in ICR mouse brain cortex at 200 mg/kg administered through oral gavage measured after 1 hr by LC-MS/MS analysis. It is filed as ADME, organism-based. The settings on record: read-out: Drug uptake.
Data set [21] is described as follows: Drug uptake in ICR mouse brain hippocampus at 200 mg/kg administered through oral gavage measured after 1 hr by LC-MS/MS analysis. It is filed as ADME, organism-based. The settings on record: read-out: Drug uptake.
A short description of data set [22]: Ratio of drug level in brain cortex to plasma in ICR mouse at 200 mg/kg administered through oral gavage. The settings on record: read-out: logBB (converted). In kind it is ADME, organism-based.
Data set [23] can be described thus: Ratio of drug level in brain hippocampus to plasma in ICR mouse at 200 mg/kg administered through oral gavage. In kind it is ADME, organism-based. The settings on record: read-out: logBB (converted).
Data set [24] relates to Mus musculus. Briefly: Cognitive enhancing effect against scopolamine-induced memory deficit in ICR mouse assessed as reduction in escape latency at 200 mg/kg, po administered through gavage 1 hr before scopolamine-challenge measured after 20 mins by passageway water maze test. In kind it is functional, organism-based.
The subject of data set [25] is Mus musculus. Briefly: Cognitive enhancing effect against scopolamine-induced memory deficit in ICR mouse assessed as reduction in number of errors at 200 mg/kg, po administered through gavage 1 hr before scopolamine-challenge measured after 20 mins by passageway water maze test. It is filed as functional, organism-based.

In brackets after ≈: the same amount, converted by molar mass. Activity calls are given as the source filed them. The rule behind the calls is not given here.

The inhibition is the percentage by which the read-out fell short of the control. In general, IC50 refers to the concentration that gives 50% inhibition. High values mean a need for much substance, low ones inhibition by little substance. Usually solubility stands for the concentration that dissolves in the medium under given conditions. High values mean a readily soluble substance, low ones a poorly soluble substance.

On to `CCNC(=S)Nc1cc(-n2cnc(CN3CCCC3)c2)ncn1` [listing 1 of 2 here], for which, in data set [1], the inhibition was 33.5%. Besides, in data set [2], the Ratio IC50 is over 597. Further, the Activity (umolequiv/umol) in data set [3] came out at 1.2. Besides, the inhibition entry in data set [4], in [6] and in data set [7] was “Active” each time. The outcome in data set [5] was Active.

In the case of `CCNC(=S)Nc1cc(-n2cnc(CN3CCCC3)c2)ncn1` [listing 2 of 2 here], the IC50 in [8] is 67 nM; in data set [9] it was over 40000 nM. Also, the Activity entry in data set [10] is “Active”; in data set [11] it was “Active”; in data set [12] it was “Active”; in data set [13], “Active”; in [14], “Non-Toxic”; in data set [15], “Toxic”. Also, in [16], the Activity entry is recorded as “Non-Toxic”. The Papp at 10 h in [17] stood at 1.15 ×10⁻⁶ cm/s. The concentration in solution in data set [18] (solubility at 24 h) was 340 µg/mL (≈ 1030 µM).

For `CCCN(CCC)Cc1cn(-c2cc(NC(=S)NCC)ncn2)cn1.Cl`, the solubility at 24 h in [18] was 3380 µg/mL. Further, the concentration at 1 h in data set [19] turned out to be 1740 ng/mL; in [20], 296 ng/g; in data set [21], 579 ng/g. Besides, the values for the Kp in data set [22] and in [23] were 0.141 and 0.324, respectively.

Take `c1cc(-n2cnc(CN3CCCC3)c2)ncn1`: the Activity (umolequiv/umol) in data set [3] was -0.01. Further, the outcome in data set [10], in data set [11], in data set [12] and in [13] was Active.

On to `CCCN(CCC)Cc1cn(-c2cc(NC(=S)NCC)ncn2)cn1` [listing 1 of 2 here], for which the 50% inhibitory concentration (IC50) was 204 nM in data set [8] and over 40000 nM in [9]. Further, the Activity result in data set [10] is “Active”; in data set [11], “Active”; in [12] it was “Active”; in [13], “Active”; in data set [14], “Non-Toxic”; in data set [15] it was “Toxic”. Further, the Activity result in data set [16] was “Non-Toxic”. The Papp at 10 h in [17] turned out to be 7.5 ×10⁻⁶ cm/s. Moreover, the solubility at 24 h in data set [18] was 58 µg/mL (≈ 160 µM).

With `CCCN(CCC)Cc1cn(-c2cc(NC(=S)NCC)ncn2)cn1` [listing 2 of 2 here], the inhibition in [1] was found to be 32.8%. In addition, the Ratio IC50 in [2] was over 196. In addition, the Activity (umolequiv/umol) in data set [3] stood at 1.28. The inhibition entry in [4], in data set [6] and in [7] was “Active” throughout. Moreover, the result in data set [5], in [24] and in data set [25] was Active.
